Assay results taken from PMC5964033 (Journal of inorganic biochemistry, 2018).
Several values for one entry are separate records, joined by “and”; a condition that tells them apart may be missing. Identical values can stand only once. Entries after “also recorded” stand apart in the source; their conditions may differ. Like-named read-outs stand apart in the source and are kept apart here.

Tests used:
[1] = tested on: fatty acid amide hydrolase (FAAH); settings: cited from earlier work
CYP2J2 [2] = molecular target: T1, CYP2J2 (Homo sapiens, UniProt P51589); assay: biochemical
T1 sequence (P51589 1-502): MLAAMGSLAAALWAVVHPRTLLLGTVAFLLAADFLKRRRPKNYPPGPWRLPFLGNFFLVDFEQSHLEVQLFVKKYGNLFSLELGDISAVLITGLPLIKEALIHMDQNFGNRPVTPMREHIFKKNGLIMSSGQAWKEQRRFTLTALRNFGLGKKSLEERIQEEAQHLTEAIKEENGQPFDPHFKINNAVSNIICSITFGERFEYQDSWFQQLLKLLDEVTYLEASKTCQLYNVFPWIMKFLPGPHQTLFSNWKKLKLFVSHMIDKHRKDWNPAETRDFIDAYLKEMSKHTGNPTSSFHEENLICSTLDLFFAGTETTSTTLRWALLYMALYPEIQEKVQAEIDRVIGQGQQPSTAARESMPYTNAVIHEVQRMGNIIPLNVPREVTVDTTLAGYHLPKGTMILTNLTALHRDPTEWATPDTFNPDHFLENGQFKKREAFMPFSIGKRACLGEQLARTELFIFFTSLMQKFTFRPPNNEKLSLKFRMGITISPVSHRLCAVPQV

CYP2J2 [3] = molecular target: T1, CYP2J2; assay: Identification of pCB metabolites formed by CYP2J2; format: in vitro ADME; settings: major mono-oxygenated product(s) of CYP2J2 metabolism
CYP2J2 [4] = molecular target: T1, CYP2J2; settings: formation of mono-oxygenated product; for Vmax: 5–60 µM pCB, 30 min, 37°C
CYP2J2 [5] = molecular target: T1, CYP2J2; settings: at saturating concentrations, CYP2J2-NDs
CYP2J2 [6] = molecular target: T1, CYP2J2; assay: Inhibition of CYP2J2-mediated AEA metabolism by pCBs; format: biochemical; settings: for Type of AEA Metabolism Inhibition / Ki: 30 µM pCB; for Type of AEA Metabolism Inhibition: model of inhibition; for Ki: CYP2J2-ND/CPR; for apparent Vmax of AEA metabolism, % of the uninhibited enzyme: in the presence of 30 µM pCB
other animal models = settings: cited from earlier work
humans = settings: cited from earlier work
CYP2J2 [7] = molecular target: T1, CYP2J2; settings: directly from Soret titration or through inhibition of ebastine binding
CYP2J2 [8] = molecular target: T1, CYP2J2; format: in vitro ADME
Rhesus monkeys = settings: cited from earlier work
not read [9] = substrate: CCCCC/C=C\C/C=C\C/C=C\C/C=C\CCCC(=O)NCCO; assay: not read; format: in vitro ADME; settings: other: total EET-EAs formed, CYP2J2-ND/CPR; pH 7.4
not read [10] = substrate: CCCCCc1cc(O)c(C/C=C(\C)CCC=C(C)C)c(O)c1; assay: not read; settings: other: formation of mono-oxygenated product; pH 7.4; 37.0 °C
[11] = read-out: Ki, AEA Metabolism Inhibition

C=C(C)[C@@H]1CCC(C)=C[C@H]1c1c(O)cc(CCCCC)cc1O [CBD, cannabidiol, reference compound]
inhibition of FAAH [1]: weakly inhibited | Kd (CYP2J2 [2]): 11.5 ± 3 µM | Metabolite(s) (CYP2J2 [3]): -7-OH + -1”-OH | Vmax (CYP2J2 [4]): 372 ± 100 pmol · min^−1 · nmolCYP2J2^−1 | high-spin shift (CYP2J2 [5]): 32% | Type of AEA Metabolism Inhibition (CYP2J2 [6]): Noncompetitive | Ki (CYP2J2 [6]; Ki, AEA Metabolism Inhibition): 16.9 ± 1.1 µM | apparent Vmax of AEA metabolism, % of the uninhibited enzyme (CYP2J2 [6]): 20–45%

CCCCCc1cc(O)c2c(c1)OC(C)(C)[C@@H]1CCC(C)=C[C@@H]21 [Δ9-THC, Δ9-tetrahydrocannabinol, reference compound]
effect on heart rate in other animal models (other animal models): induces bradycardia | effect on heart rate in humans (humans): induces tachycardia | Metabolite(s) (CYP2J2 [3]): -1’-OH | Km (CYP2J2 [4]): 11.9 ± 4.8 µM | Vmax (CYP2J2 [4]): 211 ± 28 pmol · min^−1 · nmolCYP2J2^−1 | high-spin shift (CYP2J2 [5]): did not produce a significant change in the high-spin content | Type of AEA Metabolism Inhibition (CYP2J2 [6]): Noncompetitive | apparent Vmax of AEA metabolism, % of the uninhibited enzyme (CYP2J2 [6]): 20% and 20–45% | Ki (CYP2J2 [6]; [11]): 9.86 ± 0.45 µM | binding affinity (CYP2J2 [7]): weakest

CCCCC/C=C\C/C=C\C/C=C\C/C=C\CCCC(=O)NCCO [AEA, anandamide]
Metabolite(s) (CYP2J2 [8]; AEA metabolism by CYP2J2-NDs): EET-EAs | Vmax (CYP2J2 [8]; total EET-EAs formed, CYP2J2-ND/CPR): 135 ± 14.0 pmol · min^−1 · nmolCYP2J2^−1 and 135 ± 14 pmol · min^−1 · nmolCYP2J2^−1 | high-spin shift (CYP2J2 [5]): did not produce a significant change in the high-spin content

CCCCC(O)c1cc(O)c2c(c1)OC(C)(C)C1CC=C(C)CC21 (stereo not drawn) [Δ8-THC-1’-OH]
induction of behavioral changes associated with cannabis use (Rhesus monkeys): least effective

CCCCCc1cc(O)c(C/C=C(\C)CCC=C(C)C)c(O)c1 [CBG, cannabigerol]
Kd (CYP2J2 [2]): 11.1 ± 1.2 µM | Metabolite(s) (CYP2J2 [3]): -1”-OH | Vmax (CYP2J2 [4]): 123 ± 14 pmol · min^−1 · nmolCYP2J2^−1 | high-spin shift (CYP2J2 [5]): 48% | Type of AEA Metabolism Inhibition (CYP2J2 [6]): competitively; also recorded: Competitive | Ki (CYP2J2 [6]; Ki, AEA Metabolism Inhibition): 10.8 ± 1.4 µM

CCCCCc1cc(O)c2c(c1)OC(C)(C)c1ccc(C)cc1-2 [CBN, cannabinol]
Metabolite(s) (CYP2J2 [3]): -1’-OH or -11-OH | high-spin shift (CYP2J2 [5]): 38% | Type of AEA Metabolism Inhibition (CYP2J2 [6]): Noncompetitive | Ki (CYP2J2 [6]; Ki, AEA Metabolism Inhibition): 19.4 ± 2 µM | apparent Vmax of AEA metabolism, % of the uninhibited enzyme (CYP2J2 [6]): 20–45%

CCCCCc1cc(O)c2c(c1)OC(C)(CCC=C(C)C)C=C2 (stereo not drawn) [CBC, cannabichromene]
Metabolite(s) (CYP2J2 [3]): -1”-OH | Vmax (CYP2J2 [4]): 371 ± 134 pmol · min^−1 · nmolCYP2J2^−1 | high-spin shift (CYP2J2 [5]): did not produce a significant change in the high-spin content | Type of AEA Metabolism Inhibition (CYP2J2 [6]): Noncompetitive | Ki (CYP2J2 [6]; Ki, AEA Metabolism Inhibition): 21.1 ± 1.4 µM | apparent Vmax of AEA metabolism, % of the uninhibited enzyme (CYP2J2 [6]): 20–45%

CCCCCc1cc(O)c2c(c1)OC(C)(C)[C@@H]1CC=C(C)C[C@@H]21 [Δ8-THC, Δ8-tetrahydrocannabinol]
Metabolite(s) (CYP2J2 [3]): -1’-OH | Km (CYP2J2 [4]): 8.52 ± 5.3 µM | Vmax (CYP2J2 [4]): 80.9 ± 14.3 pmol · min^−1 · nmolCYP2J2^−1 | high-spin shift (CYP2J2 [5]): did not produce a significant change in the high-spin content | Type of AEA Metabolism Inhibition (CYP2J2 [6]): Noncompetitive | apparent Vmax of AEA metabolism, % of the uninhibited enzyme (CYP2J2 [6]): 20–45% | Ki (CYP2J2 [6]; [11]): 20.2 ± 1.9 µM

B1: CYP2J2 (Homo sapiens) (protein)
chain: T1 sequence (P51589 1-502)
Km (not read [9]): 30.9 ± 7.3 µM | Km (not read [10]): 8.27 ± 3.24 µM
